{
  "source": "patent US20120195911A1",
  "about": "“Method of treatment of cancer patients” (priority 2011, published 2012)",
  "key": {"[1]": {"system": "adenocarcinomas with various localizations", "assay": "Comparative study, all cancer patients of the experimental group together", "format": "in vivo, human", "settings": "for long-term remission of the illness: fewer than 3 courses of seven days", "procedure": "All the patients belonged to the second clinical group with stage 3 illness. In the capacity of a control group (Control), the following were used: 10 cervical cancer patients, 12 stomach cancer patients, and 10 mammary gland cancer patients from clinical group 2 with stage 3 illnesses. In the control group the patients were treated without the use of Valacyclovir and Acyclovir. As may be seen in the table, the remission periods due to the use of Valacyclovir (Acyclovir) before standard methods of treatment or in combination with chemotherapy doubled for mammary gland cancer and quintupled for stomach cancer. In the majority of the patients (more than 72%), metastasis was not seen for the entire period of observation (3 years). […] The use of the antiviral drug is not useful for a longer period, as the remission period begins for the patient and the drug is ineffective."}, "[2]": {"system": "EBV-associated nasopharyngeal carcinomas", "settings": "nasopharyngeal carcinomas in athymus mice; cited from earlier work"}, "[3]": {"system": "neuroblastoma cells infected by HCMV", "settings": "long-term cultured HCMV-infected neuroblastoma cells resistant to cysplatin and etoposide; virus reproduction blocked; cited from earlier work"}, "Stomach Cancer": {"system": "Stomach Cancer", "assay": "Comparative study of treatment with Valacyclovir before standard treatment, stomach cancer patients", "format": "in vivo, human", "settings": "Valacyclovir (Acyclovir) before standard treatment or with chemotherapy", "procedure": "(§1) All the patients belonged to the second clinical group with stage 3 illness. In the capacity of a control group (Control), the following were used: 10 cervical cancer patients, 12 stomach cancer patients, and 10 mammary gland cancer patients from clinical group 2 with stage 3 illnesses. In the control group the patients were treated without the use of Valacyclovir and Acyclovir. As may be seen in the table, the remission periods due to the use of Valacyclovir (Acyclovir) before standard methods of treatment or in combination with chemotherapy doubled for mammary gland cancer and quintupled for stomach cancer. In the majority of the patients (more than 72%), metastasis was not seen for the entire period of observation (3 years)."}, "Mammary Gland Cancer": {"system": "Mammary Gland Cancer", "assay": "Comparative study of treatment with Valacyclovir before standard treatment, mammary gland cancer patients", "format": "in vivo, human", "settings": "Valacyclovir (Acyclovir) before standard treatment or with chemotherapy", "procedure": "as §1"}, "[4]": {"system": "T2N1M0 mammary gland cancer", "assay": "Case report: preoperational Valacyclovir in mammary gland cancer", "format": "in vivo, human", "settings": "Patient L., 1 g 3 times a day, 7 days, three courses, then radical mastectomy; three-year period", "procedure": "(§2) […] Before treatment with Acyclovir, the antigen to cytomegalovirus (CMV) was found in 85% of the patient's lymphocytes through the fluorescing antibody method (FAM) and therapy was administered with the use of Valacyclovir. 1 g of medication was given 3 times a day for 7 days in a row in three courses in intervals of seven days each. Then the patient underwent a radical mastectomy. Postoperative chemotherapy was not used. […] CMV antigens were not found in the lymphocytes."}, "T3N1M0 stomach cancer": {"system": "T3N1M0 stomach cancer", "assay": "Case reports: preoperative Valacyclovir in stomach cancer", "format": "in vivo, human", "settings": "then subtotal resection", "procedure": "(§3) […] CMV antigens were found using the FAM in 90% of the lymphocytes before treatment with Valacyclovir. The patient then underwent Valacyclovir therapy. 2 g of medication was administered 4 times a day for 7 days in a row in three courses in intervals of seven days each. Then a subtotal resection was performed on the patient's stomach. Postoperative chemotherapy was not used. […] Laboratory study of the patient's lymphocytes every year found CMV antigens in 10-15% of the cells. At the end of the first and second year, the patient received another course of Valacyclovir.\nEBV antigens were found 80% of the lymphocytes and CMV was found in 90% of the lymphocytes using the FAM in before treatment with Valacyclovir. The patient then underwent combination therapy with antiviral drugs: immunoglobulin to treat the EBV at a dosage of 13 ml of a 10% solution immediately (7 ml per injection) intravenously once a week three times; immunoglobulin to treat the CMV at a dosage of 13 ml of a 10% solution immediately (7 ml per injection) intramuscularly once a week three times; two 1 g tablets of Valacyclovir 3 times per day in 3 courses of 7 days each; Laferobion 3 million IU once per day daily for seven days in a row. Then a subtotal resection was performed on the patient's stomach. Postoperative chemotherapy was not used. […]"}, "T4N1M0 cervical cancer": {"system": "T4N1M0 cervical cancer", "assay": "Case report: Valacyclovir before radiation therapy for cervical cancer", "format": "in vivo, human", "settings": "Patient S.", "procedure": "(§4) […] CMV was found with the FEM in 80% of lymphocytes before treatment with Valacyclovir. The patient then underwent Valacyclovir therapy. 2 g of medication was administered 4 times a day for 7 days in a row in three courses in intervals of seven days each. Then the patient underwent a standard schedule of radiological treatment. Chemotherapy was not used. […] Laboratory study of the patient's lymphocytes every year found CMV antigens, but only in 20-30% of the cells. The patient underwent two more courses of treatment with Valacyclovir according to the schedule above once per year."}, "T4N1M0 prostate cancer": {"system": "T4N1M0 prostate cancer", "assay": "Case report: Valacyclovir with chemotherapy in prostate cancer", "format": "in vivo, human", "settings": "Patient D., 2 g orally 4 times a day, 7 days, three courses, in parallel with CVPM chemotherapy; three-year period", "procedure": "(§5) […] Valacyclovir was administered as treatment. CMV antigens were found in 95% of the patient's lymphocytes before treatment with Valacyclovir. 2 g of medication was administered orally 4 times a day for 7 days in a row in three courses in intervals of seven days each in parallel with CVPM chemotherapy. Other treatment methods were not used. […] Laboratory study of the patient's lymphocytes every year found CMV antigens in 10-15% of the cells. The patient underwent two more courses of treatment with Valacyclovir in combination with chemotherapy once per year."}, "cytomegalovirus (CMV)": {"system": "cytomegalovirus (CMV)", "assay": "CMV antigens in patient's lymphocytes (fluorescing antibody method / indirect immunofluorescence reaction)", "format": "in vivo, human", "procedure": "as §2, §3, §4, §5\n(§6) EBV antigens were found 80% of the lymphocytes and CMV was found in 90% of the lymphocytes using the FAM in before treatment with Valacyclovir. The patient then underwent combination therapy with antiviral drugs: immunoglobulin to treat the EBV at a dosage of 13 ml of a 10% solution immediately (7 ml per injection) intravenously once a week three times; immunoglobulin to treat the CMV at a dosage of 13 ml of a 10% solution immediately (7 ml per injection) intramuscularly once a week three times; two 1 g tablets of Valacyclovir 3 times per day in 3 courses of 7 days each; Laferobion 3 million IU once per day daily for seven days in a row. Then a subtotal resection was performed on the patient's stomach. Postoperative chemotherapy was not used. […] Laboratory study of the patient's lymphocytes every year found CMV and EBV antigens in 10-15% of the cells."}, "EBV": {"system": "EBV", "assay": "EBV antigens in patient's lymphocytes (fluorescing antibody method)", "format": "in vivo, human", "settings": "Patient (stomach cancer), combination with immunoglobulins and Laferobion; 80% before treatment", "procedure": "as §6"}},
  "data": [
    {"smiles": "Nc1nc2c(ncn2COCCO)c(=O)[nH]1", "note": "[Acyclovir]", "values": [
      {"measurement": "long-term remission of the illness", "setting": "[1]; less than 0.5 g 2 times a day in injected form", "result": "does not provide long-term remission"}
    ]},
    {"smiles": "Nc1ccn(C[C@@H](CO)OCP(=O)(O)O)c(=O)n1", "note": "[Cidofovir, (S)-1-(3-hydroxy-2-phpsphonyl-methoxypropyl) cytosine]", "values": [
      {"measurement": "apoptosis in EBV-transformed epithelial cells", "setting": "[2]", "result": "causes a quick induction of apoptosis"}
    ]},
    {"smiles": "Nc1nc(O)c2ncn(COC(CO)CO)c2n1", "note": "[Ganciclovir]", "values": [
      {"measurement": "sensitivity to the action of antitumor drugs", "setting": "[3]", "result": "fully restored"}
    ]},
    {"smiles": "CC(C)[C@H](N)C(=O)OCCOCn1cnc2c(=O)[nH]c(N)nc21", "note": "[Valacyclovir]", "values": [
      {"measurement": "change of remission period versus control", "setting": "Stomach Cancer", "result": "quintupled"},
      {"measurement": "change of remission period versus control", "setting": "Mammary Gland Cancer", "result": "doubled"},
      {"measurement": "patients in whom metastasis was not seen for the entire period of observation", "setting": "[1]; experimental group, observation 3 years", "result": "more than 72%"},
      {"measurement": "long-term remission of the illness", "setting": "[1]; less than 1 g 3 times a day perorally", "result": "does not provide long-term remission"},
      {"measurement": "relapses", "setting": "[4]", "result": "No relapses were seen"},
      {"measurement": "relapses", "setting": "T3N1M0 stomach cancer; Patient B., 2 g 4 times a day, 7 days, three courses, three-year period", "result": "No relapses were seen"},
      {"measurement": "relapses", "setting": "T3N1M0 stomach cancer; Patient, Valacyclovir combined with EBV and CMV immunoglobulins and Laferobion, four-year period", "result": "No relapses were seen"},
      {"measurement": "relapses", "setting": "T4N1M0 cervical cancer; 2 g 4 times a day, 7 days, three courses, then radiological treatment, three-year period", "result": "No relapses were seen"},
      {"measurement": "metastasis", "setting": "T4N1M0 cervical cancer; during the observation time", "result": "no metastasis"},
      {"measurement": "relapses", "setting": "T4N1M0 prostate cancer", "result": "No relapses were seen"},
      {"measurement": "CMV antigens in lymphocytes after treatment", "setting": "cytomegalovirus (CMV); Patient (stomach cancer), combination with immunoglobulins and Laferobion, 90% before treatment", "result": "10-15%"},
      {"measurement": "CMV antigens in lymphocytes after treatment", "setting": "cytomegalovirus (CMV); Patient B. (stomach cancer), yearly study, 90% of lymphocytes before treatment", "result": "10-15%"},
      {"measurement": "CMV antigens in lymphocytes after treatment", "setting": "cytomegalovirus (CMV); Patient D. (prostate cancer), yearly study, 95% of lymphocytes before treatment", "result": "10-15%"},
      {"measurement": "CMV antigens in lymphocytes after treatment", "setting": "cytomegalovirus (CMV); Patient L., yearly checkup by IIR, 85% of lymphocytes before treatment", "result": "not found"},
      {"measurement": "CMV antigens in lymphocytes after treatment", "setting": "cytomegalovirus (CMV); Patient S. (cervical cancer), yearly study, 80% of lymphocytes before treatment", "result": "20-30%"},
      {"measurement": "EBV antigens in lymphocytes after treatment", "setting": "EBV", "result": "10-15%"}
    ]}
  ]
}
